# Measurements reported in US10660872B2, “Methods for treatment of cognitive decline” (Ramot at Tel-Aviv University Ltd., priority 2014, dated 2020).
# Experiments:
# ICR mice [1] = test: open field test (immobility); conditions: single intraperitoneal dose, five minutes in arena
# ICR mice [2] = test: hot plate test (analgesia); conditions: single intraperitoneal dose, from 15 minutes after injection, hotplate 45° C.
# aged ICR mice = test: oasis maze test (spatial learning); conditions: 0.002 mg/kg THC, three times a week for three weeks
# ICR mice [3] = test: body temperature using a rectal thermometer; conditions: single intraperitoneal dose
# aged mice = test: Object Recognition Test (visual memory) in aged mice; conditions: 0.002 mg/kg THC intraperitoneal, 3 times a week for three weeks
# [4] = conventional dose 1, 2 or 10 mg/kg
# [5] = low dose 0.001, 0.002 or 0.01 mg/kg
structure (smiles),measurement,setting,value
"CCCCCc1cc(O)c2c(c1)OC(C)(C)[C@@H]1CCC(C)=C[C@@H]21 [THC, (−)-trans-Δ^9-tetrahydrocannabinol]",immobility (slowing of motor activity),ICR mice [1]; [4],induced conventional acute cannabinoid effects
same,immobility (slowing of motor activity),ICR mice [1]; [5],failed to induce any of these effects
same,analgesia (latency to respond to noxious stimulus),ICR mice [2]; [4],induced conventional acute cannabinoid effects
same,analgesia (latency to respond to noxious stimulus),ICR mice [2]; [5],failed to induce any of these effects
same,time to finding the filled well in test trials,aged ICR mice,find the filled well in significantly less time than aged mice treated with vehicle alone
same,hypothermia (reduced body temperature),ICR mice [3]; [4],induced conventional acute cannabinoid effects
same,hypothermia (reduced body temperature),ICR mice [3]; [5],failed to induce any of these effects
same,adverse acute effects upon administration,aged mice,No adverse acute effects were recognized
